Measurements published in patent US11649255B2, “Indazoles as hematopoietic progenitor kinase 1 (HPK1) inhibitors and methods using same” (1st Biotherapeutics, Inc., priority 2020, dated 2023).

Molecular target: recombinant human HPK1 (Homo sapiens (Human), UniProt Q92918)
Assay: HPK1 kinase assay (ADP-Glo)
Assay type: biochemical
Conditions: 25 μM ATP, MBP substrate
Outline: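 Activity was read as ADP formed, detected by ADP-Glo luminescence after the reaction of 5 ng recombinant human HPK1 with MBP and ATP (stocks 0.5 μg/μl and 25 μM) for 40 min at 30 °C. Buffer was Tris pH 7.5 with MgCl2, BSA and DTT, with compound in 0.5% DMSO. IC50 came from inhibition curves.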

recombinant human HPK1, sequence (Q92918 whole entry): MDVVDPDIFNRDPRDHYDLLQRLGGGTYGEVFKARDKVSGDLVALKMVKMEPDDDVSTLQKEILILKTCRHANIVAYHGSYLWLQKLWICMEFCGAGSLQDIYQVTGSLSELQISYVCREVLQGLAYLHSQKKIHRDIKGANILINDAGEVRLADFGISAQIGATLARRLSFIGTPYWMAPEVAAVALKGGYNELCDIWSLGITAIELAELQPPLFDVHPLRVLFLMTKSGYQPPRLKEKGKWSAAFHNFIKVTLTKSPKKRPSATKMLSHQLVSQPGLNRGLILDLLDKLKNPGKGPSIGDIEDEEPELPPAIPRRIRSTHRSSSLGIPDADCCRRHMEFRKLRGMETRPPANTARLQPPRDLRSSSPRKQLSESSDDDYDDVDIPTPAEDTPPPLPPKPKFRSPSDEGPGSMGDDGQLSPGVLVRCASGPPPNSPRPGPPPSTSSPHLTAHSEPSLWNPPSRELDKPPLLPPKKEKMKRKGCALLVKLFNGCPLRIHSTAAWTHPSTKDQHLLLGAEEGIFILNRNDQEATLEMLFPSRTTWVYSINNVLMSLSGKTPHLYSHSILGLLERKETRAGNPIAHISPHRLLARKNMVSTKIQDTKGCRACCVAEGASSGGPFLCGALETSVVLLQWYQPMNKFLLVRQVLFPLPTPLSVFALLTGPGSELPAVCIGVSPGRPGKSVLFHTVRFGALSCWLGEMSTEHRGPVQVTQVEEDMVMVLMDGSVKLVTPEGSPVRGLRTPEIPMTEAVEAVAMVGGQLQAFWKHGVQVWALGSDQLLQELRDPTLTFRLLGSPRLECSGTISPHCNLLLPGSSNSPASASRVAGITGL

## CN(CCO)c1c(F)c(Cl)c(-c2ccc3nc(NC(=O)[C@@H]4C[C@@H]4F)sc3c2)c2cn[nH]c12 [Example 93, (1S,2S)-N-(6-(5-chloro-6-fluoro-7-((2-hydroxyethyl)(methyl)amino)-1H-indazol-4-yl)benzo[d]thiazol-2-yl)-2-fluorocyclopropanecarboxamide]
  IC50: < 100 nM

## CN(CC1CNC1)c1c(F)c(Cl)c(-c2ccc3nc(NC(=O)[C@@H]4C[C@@H]4F)sc3c2)c2cn[nH]c12 [Example 94, (1S,2S)-N-(6-(7-((azetidin-3-ylmethyl)(methyl)amino)-5-chloro-6-fluoro-1H-indazol-4-yl)benzo[d]thiazol-2-yl)-2-fluorocyclopropanecarboxamide]
  IC50: < 100 nM

## O=C(Nc1nc2ccc(-c3c(Cl)c(F)c(NCC4CNC4)c4[nH]ncc34)cc2s1)[C@@H]1C[C@@H]1F [Example 95, (1S,2S)-N-(6-(7-((azetidin-3-ylmethyl)amino)-5-chloro-6-fluoro-1H-indazol-4-yl)benzo[d]thiazol-2-yl)-2-fluorocyclopropanecarboxamide]
  IC50: < 100 nM

## COc1cc(C)c(-c2ccc3nc(NC(=O)[C@@H]4C[C@@H]4F)sc3c2)c2cn[nH]c12 [Example 96, (1S,2S)-2-fluoro-N-(6-(7-methoxy-5-methyl-1H-indazol-4-yl)benzo[d]thiazol-2-yl)cyclopropanecarboxamide]
  IC50: < 100 nM

## COc1c(F)c(C)c(-c2ccc3nc(NC(=O)[C@@H]4C[C@@H]4F)sc3c2)c2cn[nH]c12 [Example 97, (1S,2S)-2-fluoro-N-(6-(6-fluoro-7-methoxy-5-methyl-1H-indazol-4-yl)benzo[d]thiazol-2-yl)cyclopropanecarboxamide]
  IC50: < 100 nM

## CCOc1c(F)c(C)c(-c2ccc3nc(NC(=O)[C@@H]4C[C@@H]4F)sc3c2)c2cn[nH]c12 [Example 98, (1S,2S)-N-(6-(7-ethoxy-6-fluoro-5-methyl-1H-indazol-4-yl)benzo[d]thiazol-2-yl)-2-fluorocyclopropanecatboxamide]
  IC50: < 100 nM

## CN(C)C(=O)CSc1c(F)c(Cl)c(-c2ccc3nc(NC(=O)[C@@H]4C[C@@H]4F)sc3c2)c2cn[nH]c12 [Example 99, (1S,2S)-N-(6-(5-chloro-7-((2-(dimethylamino)-2-oxoethyl)thio)-6-fluoro-1H-indazol-4-yl)benzo[d]thiazol-2-yl)-2-fluorocyclopropane-1-carboxamide]
  IC50: < 100 nM

## CN(C)C(=O)CN(C)c1c(F)c(Cl)c(-c2ccc3nc(NC(=O)[C@@H]4C[C@@H]4F)sc3c2)c2cn[nH]c12 [Example 100, (1S,2S)-N-(6-(5-chloro-7-((2-(dimethylamino)-2-oxoethyl)(methyl)amino)-6-fluoro-1H-indazol-4-yl)benzo[d]thiazol-2-yl)-2-fluorocyclopropane-1-carboxamide]
  IC50: < 100 nM

## CCOc1cc(C)c(-c2ccc3nc(NC(=O)[C@@H]4C[C@@H]4F)sc3c2)c2cn[nH]c12 [Example 101, (1S,2S)-N-(6-(7-ethoxy-5-methyl-1H-indazol-4-yl)benzo[d]thiazol-2-yl)-2-fluorocyclopropane-1-carboxamide]
  IC50: < 100 nM

## CCc1c(F)c(N(C)C)c2[nH]ncc2c1-c1ccc2nc(NC(=O)[C@@H]3C[C@@H]3F)sc2c1 [Example 102, (1S,2S)-N-(6-(7-(dimethylamino)-5-ethyl-6-fluoro-1H-indazol-4-yl)benzo[d]thiazol-2-yl)-2-fluorocyclopropane-1-carboxamide]
  IC50: < 100 nM

## CCc1c(F)c(SC)c2[nH]ncc2c1-c1ccc2nc(NC(=O)[C@@H]3C[C@@H]3F)sc2c1 [Example 103, (1S,2S)-N-(6-(5-ethyl-6-fluoro-7-(methylthio)-1H-indazol-4-yl)benzo[d]thiazol-2-yl)-2-fluorocyclopropane-1-carboxamide]
  IC50: < 100 nM

## CCc1c(F)c(F)c2[nH]ncc2c1-c1ccc2nc(NC(=O)[C@@H]3C[C@@H]3F)sc2c1 [Example 106, (1S,2S)-N-(6-(5-ethyl-6,7-difluoro-1H-indazol-4-yl)benzo[d]thiazol-2-yl)-2-fluorocyclopropane-1-carboxamide]
  IC50: < 100 nM

## CC(=O)Nc1c(F)c(Cl)c(-c2ccc3nc(NC(=O)[C@@H]4C[C@@H]4F)sc3c2)c2cn[nH]c12 [Example 108, (1S,2S)-N-(6-(7-acetamido-5-chloro-6-fluoro-1H-indazol-4-yl)benzo[d]thiazol-2-yl)-2-fluorocyclopropane-1-carboxamide]
  IC50: < 100 nM

## Cc1c(F)c(F)c2[nH]ncc2c1-c1ccc2nc(NC(=O)[C@@H]3C[C@@H]3F)sc2c1 [Example 109, (1S,2S)-N-(6-(6,7-difluoro-5-methyl-1H-indazol-4-yl)benzo[d]thiazol-2-yl)-2-fluorocyclopropane-1-carboxamide]
  IC50: < 100 nM

## Cc1c(F)c(S(C)(=O)=O)c2[nH]ncc2c1-c1ccc2nc(NC(=O)[C@@H]3C[C@@H]3F)sc2c1 [Example 112, (1S,2S)-2-fluoro-N-(6-(6-fluoro-5-methyl-7-(methylsulfonyl)-1H-indazol-4-yl)benzo[d]thiazol-2-yl)cyclopropane-1-carboxamide]
  IC50: 101 to 500 nM

## CC(=O)Nc1c(F)c(C)c(-c2ccc3nc(NC(=O)[C@@H]4C[C@@H]4F)sc3c2)c2cn[nH]c12 [Example 113, (1S,2S)-N-(6-(7-acetamido-6-fluoro-5-methyl-1H-indazol-4-yl)benzo[d]thiazol-2-yl)-2-fluorocyclopropane-1-carboxamide]
  IC50: < 100 nM

## CN(Nc1c(F)c(Cl)c(-c2ccc3nc(NC(=O)[C@@H]4C[C@@H]4F)sc3c2)c2cn[nH]c12)C(=O)OC(C)(C)C [Example 114, tert-butyl 2-(5-chloro-6-fluoro-4-(2-((1S,2S)-2-fluorocyclopropane-1-carboxamido)benzo[d]thiazol-6-yl)-1H-indazol-7-yl)-1-methylhydrazine-1-carboxylate]
  IC50: 101 to 500 nM

## CNNc1c(F)c(Cl)c(-c2ccc3nc(NC(=O)[C@@H]4C[C@@H]4F)sc3c2)c2cn[nH]c12 [Example 115, (1S,2S)-N-(6-(5-chloro-6-fluoro-7-(2-methylhydrazineyl)-1H-indazol-4-yl)benzo[d]thiazol-2-yl)-2-fluorocyclopropane-1-carboxamide]
  IC50: < 100 nM

## COC(=O)c1c(F)c(C)c(-c2ccc3nc(NC(=O)[C@@H]4C[C@@H]4F)sc3c2)c2cn[nH]c12 [Example 116, methyl 6-fluoro-4-(2-((1S,2S)-2-fluorocyclopropane-1-carboxamido)benzo[d]thiazol-6-yl)-5-methyl-1H-indazole-7-carboxylate]
  IC50: < 100 nM

## CSc1c(F)c(F)c2[nH]ncc2c1-c1ccc2nc(NC(=O)[C@@H]3C[C@@H]3F)sc2c1 [Example 117, (1S,2S)-N-(6-(6,7-difluoro-5-(methylthio)-1H-indazol-4-yl)benzo[d]thiazol-2-yl)-2-fluorocyclopropane-1-carboxamide 2,2,2-trifluoroacetate]
  IC50: < 100 nM

## CS(=O)(=O)c1c(F)c(Cl)c(-c2ccc3nc(NC(=O)[C@@H]4C[C@@H]4F)sc3c2)c2cn[nH]c12 [Example 119, (1S,2S)-N-(6-(5-chloro-6-fluoro-7-(methylsulfonyl)-1H-indazol-4-yl)benzo[d]thiazol-2-yl)-2-fluorocyclopropane-1-carboxamide]
  IC50: 101 to 500 nM

## CC(=O)N(C)c1c(F)c(C)c(-c2ccc3nc(NC(=O)[C@@H]4C[C@@H]4F)sc3c2)c2cn[nH]c12 [Example 120, (1S,2S)-2-fluoro-N-(6-(6-fluoro-5-methyl-7-(N-methylacetamido)-1H-indazol-4-yl)benzo[d]thiazol-2-yl)cyclopropane-1-carboxamide]
  IC50: < 100 nM

## O=C(O)c1c(F)c(Cl)c(-c2ccc3nc(NC(=O)[C@@H]4C[C@@H]4F)sc3c2)c2cn[nH]c12 [Example 121, 5-chloro-6-fluoro-4-(2-((1S,2S)-2-fluorocyclopropane-1-carboxamido)benzo[d]thiazol-6-yl)-1H-indazole-7-carboxylic acid]
  IC50: > 1000 nM

## COC(=O)c1c(F)c(Cl)c(-c2ccc3nc(NC(=O)[C@@H]4C[C@@H]4F)sc3c2)c2cn[nH]c12 [Example 122, methyl 5-chloro-6-fluoro-4-(2-((1S,2S)-2-fluorocyclopropane-1-carboxamido)benzo[d]thiazol-6-yl)-1H-indazole-7-carboxylate]
  IC50: < 100 nM

## Cc1c(F)c(C(=O)O)c2[nH]ncc2c1-c1ccc2nc(NC(=O)[C@@H]3C[C@@H]3F)sc2c1 [Example 124, 6-fluoro-4-(2-((1S,2S)-2-fluorocyclopropane-1-carboxamido)benzo[d]thiazol-6-yl)-5-methyl-1H-indazole-7-carboxylic acid]
  IC50: > 1000 nM

## O=C(Nc1nc2ccc(-c3c(Cl)c(F)c(F)c4[nH]ncc34)cc2s1)[C@@H]1C[C@@H]1F [Example 126, (1S,2S)-N-(6-(5-chloro-6,7-difluoro-1H-indazol-4-yl)benzo[d]thiazol-2-yl)-2-fluorocyclopropane-1-carboxamide]
  IC50: < 100 nM

## CNC(=O)c1c(F)c(Cl)c(-c2ccc3nc(NC(=O)[C@@H]4C[C@@H]4F)sc3c2)c2cn[nH]c12 [Example 127, 5-chloro-6-fluoro-4-(2-((1S,2S)-2-fluorocyclopropane-1-carboxamido)benzo[d]thiazol-6-yl)-N-methyl-1H-indazole-7-carboxamide]
  IC50: < 100 nM

## CC(=O)c1c(F)c(Cl)c(-c2ccc3nc(NC(=O)[C@@H]4C[C@@H]4F)sc3c2)c2cn[nH]c12 [Example 128, (1S,2S)-N-(6-(7-acetyl-5-chloro-6-fluoro-1H-indazol-4-yl)benzo[d]thiazol-2-yl)-2-fluorocyclopropane-1-carboxamide]
  IC50: 101 to 500 nM

## CN(c1c(F)c(Cl)c(-c2ccc3nc(NC(=O)[C@@H]4C[C@@H]4F)sc3c2)c2cn[nH]c12)C1CNC1 [Example 129, (1S,2S)-N-(6-(7-(azetidin-3-yl(methyl)amino)-5-chloro-6-fluoro-1H-indazol-4-yl)benzo[d]thiazol-2-yl)-2-fluorocyclopropane-1-carboxamide]
  IC50: < 100 nM
